The structures appear in SMILES notation.

In the case of `*/C(CCCCCC)=C(/*)c1ccccc1` (repeat unit), the glass transition temperature worked out at 200.00 °C.

In turn, `*CCCC(=O)Nc1ccc(Oc2cccc(NC(=O)CCCN3C(=O)c4ccc(C(=O)c5ccc6c(c5)C(=O)N(*)C6=O)cc4C3=O)c2)cc1` (repeat unit) displayed a glass transition temperature of 188.00 °C.

`*CCCC(=O)Oc1ccc(-c2ccc(OC(=O)c3ccc4c(c3)C(=O)N(*)C4=O)cc2)cc1` (repeat unit) came in with a glass transition temperature of 132.00 °C.

As to `*CCCC(C)(C)CCCn1c(=O)c2cc3c(=O)n(*)c(=O)c3cc2c1=O` (repeat unit), the glass transition temperature stood at 135.00 °C.

Compound `*CCCC(C)(C)CNC(=O)CCCCCC(=O)N*` (repeat unit) returned a glass transition temperature of 70.50 °C.

Compound `*CCCC(C)(C)CNC(=O)CCCCCCCC(=O)N*` (repeat unit) yielded a glass transition temperature of 63.00 °C.

On to `*CCCC(C)O[Si](C)(C)O*` (repeat unit), for which the glass transition temperature was -81.00 °C.

The compound `*CCCC(CC)CCNC(=O)c1ccc(C(=O)N*)cc1` (repeat unit) registered a glass transition temperature of 135.00 °C.

`*CCCCC(=O)Oc1ccc(-c2ccc(OC(=O)c3ccc4c(c3)C(=O)N(*)C4=O)cc2)cc1` (repeat unit) registered a glass transition temperature of 123.00 °C.

Compound `*CCCCC(=O)Oc1ccc(OC(=O)c2ccc3c(c2)C(=O)N(*)C3=O)cc1` (repeat unit) showed a glass transition temperature of 89.31 °C.

On to `*CCCCC(C)CCn1c(=O)c2cc3c(=O)n(*)c(=O)c3cc2c1=O` (repeat unit), for which the glass transition temperature came to 135.00 °C.

The compound `*CCCCCC(=O)Oc1ccc(-c2ccc(OC(=O)c3ccc4c(c3)C(=O)N(*)C4=O)cc2)cc1` (repeat unit) yielded a glass transition temperature of 118.00 °C.

In the case of `*CCCCCC(=O)Oc1ccc(Oc2ccc(OC(=O)CCCCCn3c(=O)c4cc5c(=O)n(*)c(=O)c5cc4c3=O)cc2)cc1` (repeat unit), the glass transition temperature was found to be 91.00 °C.

`*CCCCCC(=O)S*` (repeat unit) came in with a glass transition temperature of 19.00 °C.

Regarding `*CCCCCCC(=O)NCc1ccc(CNC(=O)CCCCCCS*)cc1` (repeat unit), the glass transition temperature stood at 65.00 °C.

For the compound `*CCCCCCC(=O)Oc1ccc(-c2ccc(OC(=O)c3ccc4c(c3)C(=O)N(*)C4=O)cc2)cc1` (repeat unit), the glass transition temperature came out at 107.00 °C.

The compound `*CCCCCCC(=O)Oc1ccc(OC(=O)c2ccc3c(c2)C(=O)N(*)C3=O)cc1` (repeat unit) came in with a glass transition temperature of 74.31 °C.

Take `*CCCCCCCC(=O)N*` (repeat unit): the glass transition temperature was determined as 37.00 °C.

Regarding `*CCCCCCCCCCC(=O)NCCCCCC(=O)N*` (repeat unit), the glass transition temperature is 25.50 °C.

The compound `*CCCCCCCCCCC(=O)NCCc1ccc(CCNC(=O)CCCCCCCCCCS*)cc1` (repeat unit) had a glass transition temperature of 58.00 °C.

Regarding `*CCCCCCCCCCC(=O)Oc1ccc(-c2ccc(OC(=O)c3ccc4c(c3)C(=O)N(*)C4=O)cc2)cc1` (repeat unit), the glass transition temperature was found to be 61.00 °C.

The compound `*CCCCCCCCCCCC(=O)N(*)C` (repeat unit) registered a glass transition temperature of -29.00 °C.

`*CCCCCCCCCCCC(=O)Oc1ccc(-c2ccc(OC(=O)c3ccc4c(c3)C(=O)N(*)C4=O)cc2)cc1` (repeat unit) registered a glass transition temperature of 60.00 °C.

In turn, `*CCCCCCCCCCCC(=O)Oc1ccc(C2(c3ccc(OC(=O)c4ccc5c(c4)C(=O)N(*)C5=O)cc3)OC(=O)c3ccccc32)cc1` (repeat unit) returned a glass transition temperature of 114.00 °C.

The compound `*CCCCCCCCCCCC(=O)Oc1ccc(OC(=O)c2ccc3c(c2)C(=O)N(*)C3=O)cc1` (repeat unit) registered a glass transition temperature of 58.00 °C.

Take `*CCCCCCCCCCCCC(=O)N*` (repeat unit): the glass transition temperature was determined as 41.00 °C.

Take `*CCCCCCCCCCCCCCCCCCCCC(*)COCCOCCOCCOCCOCc1ccc2ccc3cccc4ccc1c2c34` (repeat unit): the glass transition temperature was -21.00 °C.

The compound `*CCCCCCCCCCCCCCNC(=O)CCCCCCCCCCCCCCCCC(=O)N*` (repeat unit) registered a glass transition temperature of 48.00 °C.

Compound `*CCCCCCCCCCCCNC(=O)CCCCCCCCCCCCCCC(=O)N*` (repeat unit) displayed a glass transition temperature of 46.00 °C.

Take `*CCCCCCCCCCCCNC(=O)CCCCCCCCCCCCCCCCC(=O)N*` (repeat unit): the glass transition temperature was determined as 46.50 °C.

As to `*CCCCCCCCCCN1C(=O)C2C3C=CC(C4C(=O)N(*)C(=O)C34)C2C1=O` (repeat unit), the glass transition temperature turned out to be 219.00 °C.

`*CCCCCCCCCCNC(=O)CCCCCCCCCCCCCCCCC(=O)N*` (repeat unit) registered a glass transition temperature of 46.00 °C.

`*CCCCCCCCCCOC(=O)CCCCCCCCCCCCCCCCC(=O)O*` (repeat unit) gave a glass transition temperature of -17.00 °C.

In turn, `*CCCCCCCCCCSSSS*` (repeat unit) returned a glass transition temperature of -76.00 °C.

`*CCCCCCCCCC[N+](*)(C)C` (repeat unit) came in with a glass transition temperature of 65.90 °C.

`*CCCCCCCCN(C)c1ccc(C(=O)c2ccc(N(*)C)cc2)cc1` (repeat unit) registered a glass transition temperature of 50.00 °C.

The compound `*CCCCCCCCNC(=O)CCCCCCCCCCCCCCC(=O)N*` (repeat unit) displayed a glass transition temperature of 52.00 °C.

With `*CCCCCCCCNC(=O)CCCCCCCCCCCCCCCCC(=O)N*` (repeat unit), the glass transition temperature was 36.00 °C.

Turning to `*CCCCCCCCNC(=O)CCCCCCCCCCCCCCCCCCCCC(=O)N*` (repeat unit), the glass transition temperature is 48.00 °C.

Turning to `*CCCCCCN(C)C(=O)CCCC(=O)N(*)C` (repeat unit), the glass transition temperature was 3.00 °C.

As for `*CCCCCCN(C)c1ccc(C(=O)c2ccc(N(*)C)cc2)cc1` (repeat unit), the glass transition temperature is 75.50 °C.

`*CCCCCCN1C(=O)C(=O)N(*)C1=O` (repeat unit) gave a glass transition temperature of 55.00 °C.

In turn, `*CCCCCCN1C(=O)C(C)C(SCCOCCSC2C(=O)N(CCCCCCN3C(=O)CC(C)(SCCOCCSC4(C)CC(=O)N(*)C4=O)C3=O)C(=O)C2C)C1=O` (repeat unit) displayed a glass transition temperature of 78.00 °C.

`*CCCCCCNC(=O)CCCCCCCCCCCCCCCCC(=O)N*` (repeat unit) showed a glass transition temperature of 47.00 °C.

`*CCCCN1C(=O)C2C3C=CC(C4C(=O)N(*)C(=O)C34)C2C1=O` (repeat unit) returned a glass transition temperature of 211.00 °C.

`*CCCN(*)C(=O)C(F)(F)C(F)(F)C(F)(F)C(F)(F)C(F)(F)C(F)(F)C(F)(F)F` (repeat unit): the glass transition temperature turned out to be 25.00 °C.

In the case of `*CCCN(*)C(C)=O` (repeat unit), the glass transition temperature was determined as 30.00 °C.

The compound `*CCCN1C(=O)C2C3C=CC(C4C(=O)N(*)C(=O)C34)C2C1=O` (repeat unit) came in with a glass transition temperature of 210.00 °C.

On to `*CCCP(CCCNC(=O)CCCCC(=O)N*)CC(C)C` (repeat unit), for which the glass transition temperature worked out at 71.00 °C.

Regarding `*CCC[Si](*)(C)C[Si](C)(C)C` (repeat unit), the glass transition temperature was -51.00 °C.

With `*CCC[Si](*)(C)c1ccccc1` (repeat unit), the glass transition temperature was -1.50 °C.

Regarding `*CCC[Si](*)(c1cccc2ccccc12)C1CCCCC1` (repeat unit), the glass transition temperature was found to be 47.50 °C.

For the compound `*CCN(*)C` (repeat unit), the glass transition temperature is -31.00 °C.

`*CCN(*)C(=O)C12CC3CC(CC(C3)C1)C2` (repeat unit) came in with a glass transition temperature of 123.00 °C.

Compound `*CCN(*)C(=O)CCCCC` (repeat unit) came in with a glass transition temperature of 7.00 °C.

`*CCN(*)C(=O)CCCCCCC` (repeat unit) registered a glass transition temperature of 10.00 °C.

`*CCN(*)C(=O)CCCCCCCCCCCCCCCCC` (repeat unit) showed a glass transition temperature of 10.00 °C.

On to `*CCN(*)C(=O)c1c(F)c(F)c(F)c(F)c1F` (repeat unit), for which the glass transition temperature is 136.00 °C.

Compound `*CCN(*)C(=O)c1c(F)c(F)cc(F)c1F` (repeat unit) registered a glass transition temperature of 122.00 °C.

In the case of `*CCN(*)C(=O)c1c(F)cc(F)c(F)c1F` (repeat unit), the glass transition temperature turned out to be 122.00 °C.

With `*CCc1ccc(CCNC(=O)CCCCCCCCCCCCCCCCC(=O)N*)cc1` (repeat unit), the glass transition temperature was 75.00 °C.

Regarding `*Cc1ccc(CNC(=O)CCCCCCCCCCCC(=O)N*)cc1` (repeat unit), the glass transition temperature was found to be 100.00 °C.

The compound `*Cc1ccc(CNC(=O)CCCCCCCCCCCCCCCCC(=O)N*)cc1` (repeat unit) came in with a glass transition temperature of 75.00 °C.

The compound `*NC1CCC(CC2CCC(NC(=O)CCCCCCCCCCCCC(*)=O)CC2)CC1` (repeat unit) returned a glass transition temperature of 131.00 °C.

For `*Nc1ccc(Cc2ccc(NC(=O)c3cc(NC(=O)CCCN4C(=O)c5ccccc5C4=O)cc(C(*)=O)c3)cc2)cc1` (repeat unit), the glass transition temperature came to 220.00 °C.

In turn, `*Nc1ccc(Cc2ccc(NC(=O)c3cc(NC(=O)CCN4C(=O)c5ccccc5C4=O)cc(C(*)=O)c3)cc2)cc1` (repeat unit) came in with a glass transition temperature of 235.00 °C.

`*Nc1ccc(Cc2ccc(NC(=O)c3cc(NC(=O)c4ccc(NC(=O)C(CC(C)C)N5C(=O)c6ccccc6C5=O)cc4)cc(C(*)=O)c3)cc2)cc1` (repeat unit) returned a glass transition temperature of 238.00 °C.

As to `*Nc1ccc(NC(=O)c2cc(C(*)=O)c(C(=O)O)cc2C(=O)O)cc1` (repeat unit), the glass transition temperature was found to be 283.40 °C.

With `*Nc1ccc(NC(=O)c2cc(NC(=O)c3ccncc3)cc(C(*)=O)c2)cc1` (repeat unit), the glass transition temperature came out at 327.00 °C.

`*O[Si](C)(C)CCCNC(=O)C(=O)NCCC[Si](*)(C)C` (repeat unit) returned a glass transition temperature of -46.48 °C.

Consider `*Oc1ccc(C(=O)NCC(C)(C)CCCNC(=O)c2ccc(*)cc2)cc1` (repeat unit), for which the glass transition temperature is 155.00 °C.

On to `*Oc1ccc(NC(=O)CCCCCCCCCCC(=O)Nc2ccc(*)cc2)cc1` (repeat unit), for which the glass transition temperature turned out to be 150.00 °C.

The compound `*c1ncnc(N(CCCCCCN(*)c2ccccc2)c2ccccc2)n1` (repeat unit) showed a glass transition temperature of 72.00 °C.

The values above are taken from the PolyMetriX glass transition set.
